Starred links: 1 amine or outer side, 2 acyl side, 3 side chain; linkers in the order of their positions; H or OH if unused. Non-standard residues stand in square brackets, D forms with d. Residues, ends and D or L forms follow the SMILES beside them. *: point of attachment. dAla(cis-4-NHCOPyz-cHex) = N[C@H](C[C@H]1CC[C@@H](NC(=O)c2cnccn2)CC1)C(=O)O; X8 = O=C(N[C@H]1CC[C@@H](C[C@@H](N[*:1])C(=O)[*:2])CC1)c1ccncn1; X3 = O=C(N[C@H]1CC[C@H](C[C@@H](N[*:1])C(=O)[*:2])CC1)c1cnccn1; dPhe(4-Cl) = N[C@H](Cc1ccc(Cl)cc1)C(=O)O; Pyrimidin2yl(4,6-Me2) = Cc1cc(C)nc(*)n1; d2Nal = N[C@H](Cc1ccc2ccccc2c1)C(=O)O; dLys(iPr) = CC(C)NCCCC[C@@H](N)C(=O)O; Lys(iPr) = CC(C)NCCCC[C@H](N)C(=O)O; Orn(iPr) = CC(C)NCCC[C@H](N)C(=O)O; aIle = CC[C@@H](C)[C@H](N)C(=O)O; 3Pal = N[C@@H](Cc1cccnc1)C(=O)O; d3Pal = N[C@H](Cc1cccnc1)C(=O)O; Isonicotinoyl = O=C(c1ccncc1)*; Nicotinoyl = O=C(c1cccnc1)*; Picolinoyl = O=C(c1ccccn1)*; Orn = NCCC[C@H](N)C(=O)O; dAbu = CC[C@@H](N)C(=O)O; Nva = CCC[C@H](N)C(=O)O; Abu = CC[C@H](N)C(=O)O
System: anaesthesized rats
Assay: wheal test, intradermal injection
Type: in vivo, rat
Set-up: Wheal (wheal response): unit not given here
Settings: for Wheal: Table I; for Wheal / Wheal Area: 10 ug peptide intradermally
Method: The antiovulatory activity, AOA, in rats was determined as described by Humphries et al. (12). Antiovulation assays were performed by counting, on estrus, the number of ova shed by 4-day cycling rats after a single sc injection of the LH-RH analogue in corn oil was administered between 12 and 12:30 p.m. on […]. The control rats received 0.3 mL of the vehicle. The wheal test was performed by intradermally injecting 10 ug of peptide in 100 ul of saline into anaesthesized rats, measuring the ideally circular wheal response and calculating the area. The in vitro histamine release test was done as described by Karten et al. (4). A suspension of rat mast cells was added to increasing concentrations of peptide and the mixture was incubated for a few minutes followed by centrifugation to collect the histamine in the supernatant. A PIPES (piperazine-N,N'-bis[2-ethanesulfonic acid]) medium buffered at pH 7.4 containing NaCl 119 mM, KCl 5 mM, PIPES 25 mM, NaOH 40 mM, glucose 5.6 mM, CaCl2 1 mM, and 0.1% bovine serum albumin was used. This was designated as PIPES AC. Peptides were dissolved in double distilled H2 O at a concentration of 2 mg/ml and stored at -20° C. They were thawed just prior to testing, diluted in PIPES AC and prewarmed for five minutes at 37° C. Peptides studied were stable to heating at 56° C. for two hours, and to freezing and thawing.

Row | Wheal [mm^2 /10] | Wheal Area [mm^2 /10 μg] | SMILES | also measured
1 | 140.3 | – | CC(=O)N[C@H](Cc1ccc2ccccc2c1)C(=O)N[C@H](Cc1ccc(Cl)cc1)C(=O)N[C@H](Cc1cccnc1)C(=O)N[C@@H](CO)C(=O)N[C@@H](CCCCNC(=O)c1ccncc1)C(=O)N[C@H](CCCCNC(=O)c1ccncc1)C(=O)N[C@@H](CC(C)C)C(=O)N[C@@H](CCCCNC(C)C)C(=O)N1CCC[C@H]1C(=O)N[C@H](C)C(N)=O [compound 25146] (Ac-[d2Nal][dPhe(4-Cl)][d3Pal]SK(Isonicotinoyl)[dK](Isonicotinoyl)L[Lys(iPr)]P[dA]-NH2) | –
2 | – | 120.4 ± 4.7 | CC(=O)N[C@H](Cc1ccc2ccccc2c1)C(=O)N[C@H](Cc1ccc(Cl)cc1)C(=O)N[C@H](Cc1cccnc1)C(=O)N[C@@H](CO)C(=O)N[C@@H](CCCCNC(=O)c1ccccn1)C(=O)N[C@H](C[C@H]1CC[C@@H](NC(=O)c2ccncn2)CC1)C(=O)N[C@@H](CC(C)C)C(=O)N[C@@H](CCCCNC(C)C)C(=O)N1CCC[C@H]1C(=O)N[C@H](C)C(N)=O [compound 26323] (Ac-[d2Nal][dPhe(4-Cl)][d3Pal]SK(Picolinoyl)[X8]L[Lys(iPr)]P[dA]-NH2) | –
3 | 122.8 ± 5.8 | – | CC(=O)N[C@H](Cc1ccc2ccccc2c1)C(=O)N[C@H](Cc1ccc(Cl)cc1)C(=O)N[C@H](Cc1cccnc1)C(=O)N[C@@H](CO)C(=O)N[C@@H](Cc1ccc(O)cc1)C(=O)N[C@H](CCCCNC(C)C)C(=O)N[C@@H](CC(C)C)C(=O)N[C@@H](CCCCNC(=O)c1cccnc1)C(=O)N1CCC[C@H]1C(=O)N[C@H](C)C(N)=O [compound 24824] (Ac-[d2Nal][dPhe(4-Cl)][d3Pal]SY[dLys(iPr)]LK(Nicotinoyl)P[dA]-NH2) | –
4 | 113.6 | – | CC(=O)N[C@H](Cc1ccc2ccccc2c1)C(=O)N[C@H](Cc1ccc(Cl)cc1)C(=O)N[C@H](Cc1cccnc1)C(=O)N[C@@H](CO)C(=O)N[C@@H](CCCCNC(=O)c1cccnc1)C(=O)N[C@H](CCCCNC(=O)c1cccnc1)C(=O)N[C@@H](CC(C)C)C(=O)N[C@@H](CCCNc1nc(C)cc(C)n1)C(=O)N1CCC[C@H]1C(=O)N[C@H](C)C(N)=O [compound 25143] (Ac-[d2Nal][dPhe(4-Cl)][d3Pal]SK(Nicotinoyl)[dK](Nicotinoyl)L[Orn](Pyrimidin2yl(4,6-Me2))P[dA]-NH2) | –
5 | – | 119.6 ± 8.5 | CC(=O)N[C@H](Cc1ccc2ccccc2c1)C(=O)N[C@H](Cc1ccc(Cl)cc1)C(=O)N[C@H](Cc1cccnc1)C(=O)N[C@@H](CO)C(=O)N[C@@H](CCCCNC(=O)c1ccccn1)C(=O)N[C@H](C[C@H]1CC[C@@H](NC(=O)c2cnccn2)CC1)C(=O)N[C@@H](CC(C)C)C(=O)N[C@@H](CCCNC(=N)N)C(=O)N1CCC[C@H]1C(=O)N[C@H](C)C(N)=O [compound 26347] (Ac-[d2Nal][dPhe(4-Cl)][d3Pal]SK(Picolinoyl)[dAla(cis-4-NHCOPyz-cHex)]LRP[dA]-NH2) | –
6 | 136.3 ± 6.8 | – | CC(=O)N[C@H](Cc1ccc2ccccc2c1)C(=O)N[C@H](Cc1ccc(Cl)cc1)C(=O)N[C@H](Cc1cccnc1)C(=O)N[C@@H](CO)C(=O)N[C@@H](Cc1c[nH]cn1)C(=O)N[C@H](CCCCNC(=O)c1cccnc1)C(=O)N[C@@H](CC(C)C)C(=O)N[C@@H](CCCCNC(=O)c1cccnc1)C(=O)N1CCC[C@H]1C(=O)N[C@H](C)C(N)=O [compound 24745] (Ac-[d2Nal][dPhe(4-Cl)][d3Pal]SH[dK](Nicotinoyl)LK(Nicotinoyl)P[dA]-NH2) | –
7 | – | 101.6 ± 2.2 | CC(=O)N[C@H](Cc1ccc2ccccc2c1)C(=O)N[C@H](Cc1ccc(Cl)cc1)C(=O)N[C@H](Cc1cccnc1)C(=O)N[C@@H](CO)C(=O)N[C@@H](CCCCNC(=O)c1ccccn1)C(=O)N[C@H](C[C@H]1CC[C@@H](NC(=O)c2cnccn2)CC1)C(=O)N[C@@H](CC(C)C)C(=O)N[C@@H](CCCNC(C)C)C(=O)N1CCC[C@H]1C(=O)N[C@H](C)C(N)=O [IBR 26181] (Ac-[d2Nal][dPhe(4-Cl)][d3Pal]SK(Picolinoyl)[dAla(cis-4-NHCOPyz-cHex)]L[Orn(iPr)]P[dA]-NH2) | –
8 | – | 101.5 ± 9.3 | CC[C@H](NC(=O)[C@@H](CCCCNC(=O)c1ccccn1)NC(=O)[C@H](CCCCNC(=O)c1ccccn1)NC(=O)[C@H](CO)NC(=O)[C@@H](Cc1cccnc1)NC(=O)[C@@H](Cc1ccc(Cl)cc1)NC(=O)[C@@H](Cc1ccc2ccccc2c1)NC(C)=O)C(=O)N[C@@H](CCCNC(C)C)C(=O)N1CCC[C@H]1C(=O)N[C@H](C)C(N)=O [compound 26179] (Ac-[d2Nal][dPhe(4-Cl)][d3Pal]SK(Picolinoyl)[dK](Picolinoyl)[Abu][Orn(iPr)]P[dA]-NH2) | –
9 | 132.8 ± 5.9 | – | CC(=O)N[C@H](Cc1ccc2ccccc2c1)C(=O)N[C@H](Cc1ccc(Cl)cc1)C(=O)N[C@H](Cc1cccnc1)C(=O)N[C@@H](CO)C(=O)N[C@@H](CCCCNC(C)C)C(=O)N[C@H](CCCCNC(=O)c1cccnc1)C(=O)N[C@@H](CC(C)C)C(=O)N[C@@H](CCCCNC(=O)c1cccnc1)C(=O)N1CCC[C@H]1C(=O)N[C@H](C)C(N)=O [compound 24746] (Ac-[d2Nal][dPhe(4-Cl)][d3Pal]S[Lys(iPr)][dK](Nicotinoyl)LK(Nicotinoyl)P[dA]-NH2) | –
10 | 196.9 ± 4.1 | – | CC(=O)N[C@H](Cc1ccc2ccccc2c1)C(=O)N[C@H](Cc1ccc(Cl)cc1)C(=O)N[C@H](Cc1cccnc1)C(=O)N[C@@H](CO)C(=O)N[C@@H](CCCCNC(=O)c1cccnc1)C(=O)N[C@H](CCCCNC(C)C)C(=O)N[C@@H](CC(C)C)C(=O)N[C@@H](CCCNC(=N)N)C(=O)N1CCC[C@H]1C(=O)N[C@H](C)C(N)=O [compound 24754] (Ac-[d2Nal][dPhe(4-Cl)][d3Pal]SK(Nicotinoyl)[dLys(iPr)]LRP[dA]-NH2) | –
11 | – | 106.3 ± 4.3 | CC(=O)N[C@H](Cc1ccc2ccccc2c1)C(=O)N[C@H](Cc1ccc(Cl)cc1)C(=O)N[C@H](Cc1cccnc1)C(=O)N[C@@H](CO)C(=O)N[C@@H](CCCCNC(=O)c1ccccn1)C(=O)N[C@H](C[C@H]1CC[C@H](NC(=O)c2cnccn2)CC1)C(=O)N[C@@H](CC(C)C)C(=O)N[C@@H](CCCCNC(C)C)C(=O)N1CCC[C@H]1C(=O)N[C@H](C)C(N)=O [IV-5] (Ac-[d2Nal][dPhe(4-Cl)][d3Pal]SK(Picolinoyl)[X3]L[Lys(iPr)]P[dA]-NH2) | –
12 | – | 109.9 ± 3.0 | CC[C@@H](NC(=O)[C@@H]1CCCN1C(=O)[C@H](CCCCNC(C)C)NC(=O)[C@H](CC(C)C)NC(=O)[C@@H](CCCCNC(=O)c1ccccn1)NC(=O)[C@H](CCCCNC(=O)c1ccccn1)NC(=O)[C@H](CO)NC(=O)[C@@H](Cc1cccnc1)NC(=O)[C@@H](Cc1ccc(Cl)cc1)NC(=O)[C@@H](Cc1ccc2ccccc2c1)NC(C)=O)C(N)=O [compound 26019] (Ac-[d2Nal][dPhe(4-Cl)][d3Pal]SK(Picolinoyl)[dK](Picolinoyl)L[Lys(iPr)]P[dAbu]-NH2) | –
13 | 146.4 ± 3.6 | – | CC(=O)N[C@H](Cc1ccc2ccccc2c1)C(=O)N[C@H](Cc1ccc(Cl)cc1)C(=O)N[C@H](Cc1cccnc1)C(=O)N[C@@H](CO)C(=O)N[C@@H](Cc1cccnc1)C(=O)N[C@H](CCCCNC(=O)c1cccnc1)C(=O)N[C@@H](CC(C)C)C(=O)N[C@@H](CCCNC(=N)N)C(=O)N1CCC[C@H]1C(=O)N[C@H](C)C(N)=O [compound 24593] (Ac-[d2Nal][dPhe(4-Cl)][d3Pal]S[3Pal][dK](Nicotinoyl)LRP[dA]-NH2) | –
14 | – | – | CC[C@@H](C)[C@H](NC(=O)[C@@H](CCCCNC(=O)c1ccccn1)NC(=O)[C@H](CCCCNC(=O)c1ccccn1)NC(=O)[C@H](CO)NC(=O)[C@@H](Cc1cccnc1)NC(=O)[C@@H](Cc1ccc(Cl)cc1)NC(=O)[C@@H](Cc1ccc2ccccc2c1)NC(C)=O)C(=O)N[C@@H](CCCNC(C)C)C(=O)N1CCC[C@H]1C(=O)N[C@H](C)C(N)=O [IBR 26178] (Ac-[d2Nal][dPhe(4-Cl)][d3Pal]SK(Picolinoyl)[dK](Picolinoyl)[aIle][Orn(iPr)]P[dA]-NH2) | Wheal (wheal response) (Table XIV and text, unit not given): 78.6±4.5
15 | – | 95.3 ± 6.0 | CCC[C@H](NC(=O)[C@@H](CCCCNC(=O)c1ccccn1)NC(=O)[C@H](CCCCNC(=O)c1ccccn1)NC(=O)[C@H](CO)NC(=O)[C@@H](Cc1cccnc1)NC(=O)[C@@H](Cc1ccc(Cl)cc1)NC(=O)[C@@H](Cc1ccc2ccccc2c1)NC(C)=O)C(=O)N[C@@H](CCCCNC(C)C)C(=O)N1CCC[C@H]1C(=O)N[C@H](C)C(N)=O [compound 25989] (Ac-[d2Nal][dPhe(4-Cl)][d3Pal]SK(Picolinoyl)[dK](Picolinoyl)[Nva][Lys(iPr)]P[dA]-NH2) | –
16 | 146.8 | – | CC(=O)N[C@H](Cc1ccc2ccccc2c1)C(=O)N[C@H](Cc1ccc(Cl)cc1)C(=O)N[C@H](Cc1cccnc1)C(=O)N[C@@H](CO)C(=O)N[C@@H](CCCNC(=N)N)C(=O)N[C@H](CCCCNC(=O)c1cccnc1)C(=O)N[C@@H](CC(C)C)C(=O)N[C@@H](CCCNC(=N)N)C(=O)N1CCC[C@H]1C(=O)N[C@H](C)C(N)=O [compound 24199] (Ac-[d2Nal][dPhe(4-Cl)][d3Pal]SR[dK](Nicotinoyl)LRP[dA]-NH2) | –
17 | 126.2 ± 8.8 | – | CC(=O)N[C@H](Cc1ccc2ccccc2c1)C(=O)N[C@H](Cc1ccc(Cl)cc1)C(=O)N[C@H](Cc1cccnc1)C(=O)N[C@@H](CO)C(=O)N[C@@H](CCCCNC(=O)c1cccnc1)C(=O)N[C@H](CCCCNC(=O)c1cccnc1)C(=O)N[C@@H](CC(C)C)C(=O)N[C@@H](CCCNC(=N)N)C(=O)N1CCC[C@H]1C(=O)N[C@H](C)C(N)=O [compound 24594] (Ac-[d2Nal][dPhe(4-Cl)][d3Pal]SK(Nicotinoyl)[dK](Nicotinoyl)LRP[dA]-NH2) | –
